Tests used:
Cannabinoid receptor 1 [1] = molecular target: T1, Cannabinoid receptor 1 (Homo sapiens, UniProt P21554); assay: Displacement of [3H]CP-55940 from human recombinant CB1 receptor
Cannabinoid receptor 2 = Cannabinoid receptor 2 (Homo sapiens, UniProt P34972); assay: Displacement of [3H]CP-55940 from human recombinant CB2 receptor
Cannabinoid receptor 1 [2] = molecular target: T1, Cannabinoid receptor 1; assay: Displacement of [3H]CP-55940 from human recombinant CB1 receptor in presence of hydrolase inhibitor PMSF
[3] = molecular target: T2, Fatty-acid amide hydrolase 1 (Rattus norvegicus, UniProt P97612); assay: Inhibitory activity against rat brain FAAH by [14C]anandamide hydrolysis
T2 sequence (P97612 whole entry): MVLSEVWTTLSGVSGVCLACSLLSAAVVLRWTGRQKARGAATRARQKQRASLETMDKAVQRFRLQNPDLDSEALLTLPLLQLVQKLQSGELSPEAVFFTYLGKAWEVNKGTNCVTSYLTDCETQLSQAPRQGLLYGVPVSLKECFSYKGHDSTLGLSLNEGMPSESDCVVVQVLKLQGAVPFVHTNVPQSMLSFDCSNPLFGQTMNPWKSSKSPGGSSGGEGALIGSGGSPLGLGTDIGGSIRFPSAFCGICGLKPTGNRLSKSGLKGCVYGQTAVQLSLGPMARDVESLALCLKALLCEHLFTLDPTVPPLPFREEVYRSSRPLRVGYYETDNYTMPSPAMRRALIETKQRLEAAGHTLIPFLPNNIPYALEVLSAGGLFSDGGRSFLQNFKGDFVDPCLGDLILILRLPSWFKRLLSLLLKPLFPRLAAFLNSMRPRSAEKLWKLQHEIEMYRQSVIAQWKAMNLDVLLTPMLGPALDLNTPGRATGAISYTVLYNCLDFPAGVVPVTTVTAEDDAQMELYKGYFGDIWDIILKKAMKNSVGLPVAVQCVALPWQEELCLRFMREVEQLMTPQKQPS

Sequence of Cannabinoid receptor 2 (P34972 whole entry): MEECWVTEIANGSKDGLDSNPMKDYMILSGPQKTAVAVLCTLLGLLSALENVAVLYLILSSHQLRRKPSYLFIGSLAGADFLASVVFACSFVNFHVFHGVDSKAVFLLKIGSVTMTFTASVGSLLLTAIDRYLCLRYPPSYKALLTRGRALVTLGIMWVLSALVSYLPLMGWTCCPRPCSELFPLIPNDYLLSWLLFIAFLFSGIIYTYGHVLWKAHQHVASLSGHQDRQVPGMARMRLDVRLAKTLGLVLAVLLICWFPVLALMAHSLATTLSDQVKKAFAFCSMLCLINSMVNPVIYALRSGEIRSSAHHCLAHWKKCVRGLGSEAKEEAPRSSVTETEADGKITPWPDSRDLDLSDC
T1 sequence (P21554 whole entry): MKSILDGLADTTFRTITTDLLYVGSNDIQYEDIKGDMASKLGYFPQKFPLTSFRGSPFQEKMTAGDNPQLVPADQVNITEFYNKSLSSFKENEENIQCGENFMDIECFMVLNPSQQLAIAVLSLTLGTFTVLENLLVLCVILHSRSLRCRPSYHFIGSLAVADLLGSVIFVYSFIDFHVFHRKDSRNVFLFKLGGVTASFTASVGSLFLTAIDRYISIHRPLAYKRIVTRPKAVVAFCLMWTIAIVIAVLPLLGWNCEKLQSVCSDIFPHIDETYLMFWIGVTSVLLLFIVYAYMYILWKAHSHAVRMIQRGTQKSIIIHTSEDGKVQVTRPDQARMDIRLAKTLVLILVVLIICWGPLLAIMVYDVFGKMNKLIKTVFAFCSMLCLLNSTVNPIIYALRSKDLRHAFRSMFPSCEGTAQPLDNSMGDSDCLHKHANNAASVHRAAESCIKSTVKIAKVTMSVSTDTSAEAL

SMILES | Ki (Cannabinoid receptor 1 [1]) | Ki (Cannabinoid receptor 2) | Ki (Cannabinoid receptor 1 [2]) | IC50 [3]
CCCCC/C=C\C/C=C\C/C=C\C/C=C\CCCC(=O)NCc1ccc(OC)cc1OC | 0.2 µM | 4 µM | 0.2 µM | > 25 µM
CCCCC/C=C\C/C=C\C/C=C\C/C=C\CCCC(=O)N1CCN(c2ccc(Cl)cc2)CC1 | 0.6 µM | > 10 µM | – | –
CCCCC/C=C\C/C=C\C/C=C\C/C=C\CCCC(=O)NCc1ccc(OC)cc1 | 0.6 µM | 4.5 µM | – | –
CCCCCCCC/C=C/C(=O)Nc1ccc(OC)cc1 | – | 2.5 µM | – | –
CCCCCCCC/C=C/C(=O)NCCc1ccc(OC)cc1 | – | 5.1 µM | – | –
C=CCCCCCCCCC(=O)NCCc1ccc(OC)cc1OC | > 10 µM | > 10 µM | – | –
CCCCCCCC/C=C\CCCCCCCC(=O)NCCc1cc(OC)cc(OC)c1 | 1.3 µM | > 10 µM | 1 µM | > 25 µM
CCCCCCCC/C=C\CCCCCCCC(=O)NCCc1ccc(OC)cc1OC | 0.8 µM | > 10 µM | 0.6 µM | > 25 µM
CCCCCCCC/C=C\CCCCCCCC(=O)NCCc1ccc(OC)cc1 | 0.4 µM | > 10 µM | 0.3 µM | > 25 µM
CCCCCCCC/C=C/C(=O)NCc1ccc(OC)cc1 | > 10 µM | > 10 µM | – | –
CCCCCCCC/C=C\CCCCCCCCCCCC(=O)NCCc1ccc(OC)cc1 | > 10 µM | > 10 µM | – | –
C=CCCCCCCCCC(=O)Nc1ccc(N2CCOCC2)cc1 | > 10 µM | > 10 µM | – | –
CCCCCCCC/C=C\CCCCCCCCCCCC(=O)NCCc1cc(OC)cc(OC)c1 | 5.4 µM | > 10 µM | – | –
CCCCC/C=C\C/C=C\C/C=C\C/C=C\CCCC(=O)Nc1ccc(N2CCOCC2)cc1 | 0.15 µM | 4.3 µM | 0.15 µM | > 25 µM
CCCCCCCC/C=C\CCCCCCCCCCCC(=O)Nc1ccc(N2CCOCC2)cc1 | 6.4 µM | > 10 µM | – | –
CCCCCCCC/C=C\CCCCCCCC(=O)Nc1ccc(OC)cc1 | 1.6 µM | > 10 µM | 1.5 µM | > 25 µM
CCCCC/C=C\C/C=C\C/C=C\C/C=C\CCCC(=O)N1CCN(c2ccc(F)cc2)CC1 | 0.3 µM | 5.1 µM | 0.3 µM | > 25 µM
CCCCCCCC/C=C/C(=O)NCCc1ccc(OC)cc1OC | > 10 µM | > 10 µM | – | –

SMILES | Ki (Cannabinoid receptor 1 [1]) | Ki (Cannabinoid receptor 2) | Ki (Cannabinoid receptor 1 [2]) | IC50 [3]
CCCCC/C=C\C/C=C\C/C=C\C/C=C\CCCC(=O)Nc1ccc(OC)cc1 | 0.5 µM | 4 µM | – | –
CCCCCCCC/C=C\CCCCCCCCCCCC(=O)NCCc1ccc(OC)cc1OC | 3.7 µM | > 10 µM | – | –
CCCCCCCC/C=C\CCCCCCCC(=O)Nc1ccc(N2CCOCC2)cc1 | > 10 µM | > 10 µM | – | –
C=CCCCCCCCCC(=O)NCc1ccc(OC)cc1 | > 10 µM | > 10 µM | – | –
CCCCCCCC/C=C/C(=O)Nc1ccc(N2CCOCC2)cc1 | > 10 µM | > 10 µM | – | –
C=CCCCCCCCCC(=O)Nc1ccc(OC)cc1 | > 10 µM | > 10 µM | – | –
C=CCCCCCCCCC(=O)NCCc1ccc(OC)cc1 | > 10 µM | > 10 µM | – | –
C=CCCCCCCCCC(=O)NCCc1cc(OC)cc(OC)c1 | > 10 µM | > 10 µM | – | –
CCCCC/C=C\C/C=C\C/C=C\C/C=C\CCCC(=O)NCCc1ccc(OC)cc1 | 2.4 µM | > 10 µM | – | –
CCCCCCCC/C=C\CCCCCCCC(=O)NCc1ccc(OC)cc1 | 0.5 µM | > 10 µM | 0.6 µM | > 25 µM
CCCCCCCC/C=C/C(=O)NCCc1cc(OC)cc(OC)c1 | 2.8 µM | 5.2 µM | – | –
CCCCC/C=C\C/C=C\C/C=C\C/C=C\CCCC(=O)N1CCN(c2ccc(C)c(C)c2)CC1 | 0.4 µM | 4.2 µM | – | –
CCCCC/C=C\C/C=C\C/C=C\C/C=C\CCCC(=O)NCc1cc(OC)ccc1OC | 0.5 µM | 4.1 µM | – | –
CCCCC/C=C\C/C=C\C/C=C\C/C=C\CCCC(=O)NCCc1cc(OC)cc(OC)c1 | > 10 µM | > 10 µM | – | –
CCCCC/C=C\C/C=C\C/C=C\C/C=C\CCCC(=O)Nc1ccc(O)cc1 | 1.76 µM | – | – | –
CCCCCCCC/C=C\CCCCCCCCCCCC(=O)NCc1ccc(OC)cc1 | > 10 µM | > 10 µM | – | –
CCCCC/C=C\C/C=C\C/C=C\C/C=C\CCCC(=O)NCCc1ccc(OC)cc1OC | 0.5 µM | 4 µM | – | –
CCCCCCCC/C=C\CCCCCCCCCCCC(=O)Nc1ccc(OC)cc1 | > 10 µM | > 10 µM | – | –

Reference: ChEMBL document CHEMBL1148545, “New metabolically stable fatty acid amide ligands of cannabinoid receptors: Synthesis and receptor affinity studies” (Bioorg Med Chem Lett, 2006)
